Laboratory results from ChEMBL document CHEMBL1156361, “Structure-activity relationship of in vitro antiviral and cytotoxic activity of semisynthetic analogues of scopadulane diterpenes” (J Nat Prod, 2001).
Values after ≈ are worked out from the molar mass of the structure shown. Active and inactive are the calls of the source. The rule behind the calls is not given here.

Experiments:
[1] = test system: Human alphaherpesvirus 2; assay: Antiviral activity against Herpes simplex virus 2 infected in african green monkey Vero cells assessed as ratio of the viral titers in absence to presence of drug after 48 hrs by end-point titration technique; assay type: functional
[2] = test system: Human alphaherpesvirus 2; assay: Antiviral activity against Herpes simplex virus 2 infected in african green monkey Vero cells assessed inhibition of virus-induced effect after 48 hrs by MTT assay; assay type: functional, organism-based; details: Human alphaherpesvirus 2, Vero
[3] = test system: Vero; assay: Cytotoxicity against african green monkey Vero cells by end-point titration technique; assay type: cell-based; details: chlorocebus sabaeus
[4] = Therapeutic index, ratio of CC50 for african green monkey Vero cells to IC50 for Herpes simplex virus 2 by MTT assay; assay type: cell-based; details: read-out: Ratio CC50/IC50
[5] = Cytotoxicity against african green monkey Vero cells by MTT assay; assay type: cell-based; details: chlorocebus sabaeus
[6] = test system: Human alphaherpesvirus 2; assay: Antiviral activity against Herpes simplex virus 2 infected in african green monkey Vero cells assessed as maximal nontoxic dose that showed the highest viral reduction factor after 48 hrs by end-point titration technique; assay type: functional
[7] = Cytotoxicity against bovine Bon-Fib cells after 48 hrs; assay type: cell-based, Bos taurus; details: cattle
[8] = test system: CHO; assay: Cytotoxicity against CHO cells after 48 hrs; assay type: cell-based, Cricetulus griseus; details: chinese hamster
[9] = test system: HEp-2; assay: Cytotoxicity against human Hep2 cells after 48 hrs; assay type: functional
[10] = test system: HeLa; assay: Cytotoxicity against human HeLa cells after 48 hrs; assay type: functional

CC1(C)CCC[C@@]2(C)[C@H]1CC[C@H]1C[C@@H](O)[C@]3(C)CC[C@]12C3
Ratio [1]: 100
IC50 [2]: 16.5 µg/mL (≈ 56.8 µM)
CC100 [3]: 32 µg/mL
selectivity ratio [4]: 1.25
CC50 [5]: 19.5 µg/mL (≈ 67.1 µM)
Activity [6]: 7.5 µg/mL

CC1(C)CCC[C@@]2(C)[C@H]1CC[C@H]1CC(=O)[C@]3(C)CC[C@]12C3
Ratio [1]: 100
CC100 [7]: 24 µg/mL
IC50 [2]: 21 µg/mL (≈ 72.9 µM)
CC100 [8]: 24 µg/mL
CC100 [3]: 28 µg/mL
selectivity ratio [4]: 0.81
CC50 [5]: 16.7 µg/mL (≈ 57.9 µM)
Activity [6]: 14 µg/mL

CC1(C)CCC[C@@]2(C)[C@H]1CCC1=CC(=O)[C@]3(C)CC[C@]12C3
Ratio [1]: 100
IC50 [2]: 32.4 µg/mL (≈ 113 µM)
CC100 [3]: 40 µg/mL
selectivity ratio [4]: 0.72
CC50 [5]: 23.2 µg/mL (≈ 81 µM)
Activity [6]: 20 µg/mL

CC1(C)CCC[C@@]2(C)[C@H]1C[C@@H](O)[C@@H]1CC(=O)[C@]3(C)CC[C@]12C3
Ratio [1]: 100
IC50 [2]: 42.1 µg/mL (≈ 138 µM)
CC100 [3]: 60 µg/mL
selectivity ratio [4]: 0.66
CC50 [5]: 27.8 µg/mL (≈ 91.3 µM)
Activity [6]: 30 µg/mL

CC1(C)CCC[C@@]2(C)[C@H]1CCC1=CC(=O)[C@@]3(C)C[C@@]12CC3=O
Ratio [1]: 10
CC100 [3]: 60 µg/mL
Activity [6]: 30 µg/mL

CC1(C)CCC[C@@]2(C)[C@H]1C[C@H](O)[C@H]1CC(=O)[C@]3(C)CC[C@]12C3
Ratio [1]: 5
CC100 [3]: 48 µg/mL
Activity [6]: 10 µg/mL

CC1(C)CCC[C@@]2(C)[C@H]1C[C@@H](O)C1=CC(=O)[C@]3(C)CC[C@]12C3
Ratio [1]: 10
CC100 [7]: 10 µg/mL
CC100 [8]: 20 µg/mL
CC100 [3]: 28 µg/mL
Activity [6]: 14 µg/mL

CC1(C)CCCC2=C1CC[C@@]13CC[C@](C)(C[C@@]21C)C(=O)C3
Ratio [1]: inactive
CC100 [3]: 35 µg/mL
Activity [6]: inactive

CC1(C)CCC[C@@]2(C)[C@H]1C[C@H](O)[C@H]1C[C@@H](O)[C@]3(C)CC[C@]12C3 [THYRSIFLORIN C]
Ratio [1]: inactive
CC100 [7]: 60 µg/mL
CC100 [8]: 45 µg/mL
CC100 [3]: 30 µg/mL
Activity [6]: inactive

Nc1nc2c(ncn2COCCO)c(=O)[nH]1 [ACYCLOVIR]
Ratio [1]: 100000
IC50 [2]: 4.21 µg/mL (≈ 18.7 µM)
CC100 [3]: > 600 µg/mL
Activity [6]: 6 µg/mL

CC1(C)CCC[C@@]2(C)[C@H]1CC[C@@]13CC(=O)[C@]4(C)CC1[C@]32C4
Ratio [1]: 10
CC100 [3]: 40 µg/mL
Activity [6]: 20 µg/mL

COC(=O)CC(=O)O[C@@H]1C[C@@H]2[C@@H](OC(C)=O)C[C@H]3C(C)(C)CCC[C@]3(C)[C@]23CC[C@]1(C)C3 [METHYL THYRSIFLORIN B ACETATE]
Ratio [1]: 5
CC100 [7]: 60 µg/mL
CC100 [8]: 30 µg/mL
CC100 [9]: 30 µg/mL
CC100 [3]: 30 µg/mL
CC100 [10]: 30 µg/mL
Activity [6]: 15 µg/mL

CC(=O)O[C@H]1C[C@H]2C(C)(C)CCC[C@]2(C)[C@@]23CC[C@](C)(C2)[C@@H](O)C[C@H]13
Ratio [1]: 10
CC100 [3]: 50 µg/mL
Activity [6]: 25 µg/mL

CC(=O)O[C@H]1C[C@H]2C(C)(C)CCC[C@]2(C)[C@@]23CC[C@](C)(C2)[C@H](OC(C)=O)C[C@H]13 [THYRSIFLORIN C DIACETATE]
Ratio [1]: 5
CC100 [7]: 60 µg/mL
CC100 [8]: 40 µg/mL
CC100 [3]: 50 µg/mL
Activity [6]: 10 µg/mL

COC(=O)CC(=O)O[C@@H]1C[C@@H]2CC[C@H]3C(C)(C)CCC[C@]3(C)[C@]23CC[C@]1(C)C3 [METHYL THYRSIFLORIN A]
Ratio [1]: 5
CC100 [7]: 28 µg/mL
CC100 [8]: 28 µg/mL
CC100 [3]: 30 µg/mL
Activity [6]: 15 µg/mL
